Measurements taken from patent US20240174690A1, “ANNULATED 2-AMINO-3-CYANO THIOPHENES AND DERIVATIVES FOR THE TREATMENT OF CANCER” (BOEHRINGER INGELHEIM INTERNATIONAL GMBH, priority 2021, published 2024).

Tested on: Caco-2 cell monolayers
Assay: Caco-2 assay (permeability PappAB, PappBA, efflux ratio)
Assay type: in vitro ADME
Conditions: 10 μM test compound, pH 7.4
Outline: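 Bidirectional permeability (apical-to-basolateral and reverse) through polarized Caco-2 monolayers, BSA 0.25% on each side, 37 °C. Donor and receiver sampled at 0-90 min after 25-30 min preincubation, analysed by HPLC/MS/MS. Apparent permeabilities derived from transfer rate normalised to area and t=0 donor concentration; ER taken as PappBA over PappAB.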

With `C[C@H](Oc1cc(-c2ccn(C)n2)nc(-c2onc3c2CCC[C@@]32CCCc3sc(N)c(C#N)c32)n1)[C@@H]1CCCN1C` [I-21] as the compound, how does the “Caco PappAB” value (apical to basolateral) read?
Its value is 5.1 ×10⁻⁶ cm/s.

And the “Caco ER” value (efflux ratio PappBA/PappAB)?
Its value is 6.8.
